Assay results from US20070266957A1 (priority 2004, published 2007).
Where two headings read alike, the source gives them in different places.

System: influenza virus (H3N2 type human vaccine New Caledonia strain)
Format: cell-based

Q: hinokitiol copper complex was tested. Which anti-influenza virus activity did it give?
A: ineffective

Q: And the FFU (concentration 0.8 μg/ml)?
A: 280 FFU

Q: What about the FFU (concentration 4 μg/ml) of the same substance?
A: Exfoliation

Q: And the FFU (concentration 20 μg/ml)?
A: Exfoliation

Q: What about the FFU (concentration 100 μg/ml) of the same substance?
A: Exfoliation
